Values of other authors, collected in PubChem BioAssay AID1259409 (Chemical Carcinogenesis Research Information System (CCRIS), 2018).

System: rodent chemically induced tumor inhibition, incidence and multiplicity
Experiment: CCRIS tumor inhibitor studies
Conditions: Route [Inhibitor]: ORAL, Promoter: NONE USED

CCNC(=O)/C=C(C)/C=C/C=C(C)/C=C/C1=C(C)CCCC1(C)C
tumour outcome (control, treated, inhibition, significance) (Carcinogen: 1,2-DIMETHYLHYDRAZINE, 540-73-8, Dose [Inhibitor]: 2 MMOL/KG DIET DAILY STARTING 12 D AFTER CARCINOGEN TREATMENT THROUGH ABOUT 8 MO AFTER CARCINOGEN DOSE (STUDY DURATION:, Species: RAT, Strain/Sex: F344/MALE, Target Tissue: Type of Lesion: COLON: ADENOCARCINOMA, Dose [Carcinogen]: 150 MG/KG BW ONCE): 10/39 (26%), 6/30 (20%), 23%, not significant | tumour outcome (control, treated, inhibition, significance) (Carcinogen: 1,2-DIMETHYLHYDRAZINE, 540-73-8, Dose [Inhibitor]: 2 MMOL/KG DIET DAILY STARTING 12 D AFTER CARCINOGEN TREATMENT THROUGH ABOUT 8 MO AFTER CARCINOGEN DOSE (STUDY DURATION:, Species: RAT, Strain/Sex: F344/MALE, Target Tissue: Type of Lesion: COLON: ADENOMA, Dose [Carcinogen]: 150 MG/KG BW ONCE): 23/39 (59%), 15/30 (50%), 15%, not significant | tumour outcome (control, treated, inhibition, significance) (Carcinogen: N-(4-(5-NITRO-2-FURYL)-2-THIAZOLYL)FORMAMIDE, 24554-26-5, Dose [Inhibitor]: 327 MG/KG DIET DAILY FOR 39 WK STARTING ONE WK FOLLOWING THE TERMINATION OF CARCINOGEN ADMINISTRATION (STUDY DURATION: 5, Species: RAT, Strain/Sex: F344/FEMALE, Target Tissue: Type of Lesion: URINARY BLADDER: CARCINOMA, Dose [Carcinogen]: 2 G/KG IN DIET DAILY FOR 10 WK): 105/200 (53%), 63/100 (63%), -19%, p 0.0843 | tumour outcome (control, treated, inhibition, significance) (Carcinogen: N-(4-(5-NITRO-2-FURYL)-2-THIAZOLYL)FORMAMIDE, 24554-26-5, Dose [Inhibitor]: 327 MG/KG DIET DAILY FOR 39 WK STARTING ONE WK FOLLOWING THE TERMINATION OF CARCINOGEN ADMINISTRATION (STUDY DURATION: 5, Species: RAT, Strain/Sex: F344/FEMALE, Target Tissue: Type of Lesion: URINARY BLADDER: PAPILLOMA, Dose [Carcinogen]: 2 G/KG IN DIET DAILY FOR 10 WK): 15/200 (8%), 1/100 (1%), 88%, p 0.0182 | tumour outcome (control, treated, inhibition, significance) (Carcinogen: N-(4-(5-NITRO-2-FURYL)-2-THIAZOLYL)FORMAMIDE, 24554-26-5, Dose [Inhibitor]: 327 MG/KG/D IN DIET FOR 39 WK STARTING 1 WK POST CARCINOGEN DOSE TREATMENT (STUDY DURATION: 50 WK), Species: RAT, Strain/Sex: F344/FEMALE, Target Tissue: Type of Lesion: URINARY BLADDER: PAPILLOMA, Dose [Carcinogen]: 2 G/KG/D IN DIET FOR 10 WK): 15/200 (8%), 1/100 (1%), 87%, p=0.0182 | tumour outcome (control, treated, inhibition, significance) (Carcinogen: N-(4-(5-NITRO-2-FURYL)-2-THIAZOLYL)FORMAMIDE, 24554-26-5, Dose [Inhibitor]: 327 MG/KG/D IN DIET FOR 39 WK STARTING 1 WK POST CARCINOGEN TREATMENT (STUDY DURATION: 50 WK), Species: RAT, Strain/Sex: F344/FEMALE, Target Tissue: Type of Lesion: URINARY BLADDER: CARCINOMA, Dose [Carcinogen]: 2 G/KG/D IN DIET FOR 10 WK): 105/200 (53%), 63/100 (63%), -19%, p=0.0843 | tumour outcome (control, treated, inhibition, significance) (Carcinogen: N-(4-(5-NITRO-2-FURYL)-2-THIAZOLYL)FORMAMIDE, 24554-26-5, Dose [Inhibitor]: 654 MG/KG DIET DAILY FOR 39 WK STARTING ONE WK FOLLOWING THE TERMINATION OF CARCINOGEN ADMINISTRATION (STUDY DURATION: 5, Species: RAT, Strain/Sex: F344/FEMALE, Target Tissue: Type of Lesion: URINARY BLADDER: CARCINOMA, Dose [Carcinogen]: 2 G/KG IN DIET DAILY FOR 10 WK): 105/200 (53%), 78/100 (78%), -47%, p 0.00002 | tumour outcome (control, treated, inhibition, significance) (Carcinogen: N-(4-(5-NITRO-2-FURYL)-2-THIAZOLYL)FORMAMIDE, 24554-26-5, Dose [Inhibitor]: 654 MG/KG DIET DAILY FOR 39 WK STARTING ONE WK FOLLOWING THE TERMINATION OF CARCINOGEN ADMINISTRATION (STUDY DURATION: 5, Species: RAT, Strain/Sex: F344/FEMALE, Target Tissue: Type of Lesion: URINARY BLADDER: PAPILLOMA, Dose [Carcinogen]: 2 G/KG IN DIET DAILY FOR 10 WK): 15/200 (8%), 12/100 (12%), -50%, p 0.1989 | tumour outcome (control, treated, inhibition, significance) (Carcinogen: N-(4-(5-NITRO-2-FURYL)-2-THIAZOLYL)FORMAMIDE, 24554-26-5, Dose [Inhibitor]: 654 MG/KG IN DIET FOR 39 WK STARTING 1 WK POST CARCINOGEN TREATMENT (STUDY DURATION: 50 WK), Species: RAT, Strain/Sex: F344/FEMALE, Target Tissue: Type of Lesion: URINARY BLADDER: PAPILLOMA, Dose [Carcinogen]: 2 G/KG/D IN DIET FOR 10 WK): 15/200 (7.5%), 12/100 (12%), -60%, p=0.1989 | tumour outcome (control, treated, inhibition, significance) (Carcinogen: N-(4-(5-NITRO-2-FURYL)-2-THIAZOLYL)FORMAMIDE, 24554-26-5, Dose [Inhibitor]: 654 MG/KG/D IN DIET FOR 39 WK STARTING 1 WK POST CARCINOGEN TREATMENT (STUDY DURATION: 50 WK), Species: RAT, Strain/Sex: F344/FEMALE, Target Tissue: Type of Lesion: URINARY BLADDER: CARCINOMA, Dose [Carcinogen]: 2 G/KG/D IN DIET FOR 10 WK): 105/200 (53%), 78/100 (78%), -47%, p=0.00002 | tumour outcome (control, treated, inhibition, significance) (Carcinogen: N-BUTYL-N-(4-HYDROXYBUTYL)NITROSAMINE, 3817-11-6, Dose [Inhibitor]: 0.5 MMOL/KG DIET DAILY FOR 16 WK STARTING 7 D AFTER FINAL CARCINOGEN DOSE (STUDY DURATION: 6 MO), Species: MOUSE, Strain/Sex: B6D2F1/MALE, Target Tissue: Type of Lesion: URINARY BLADDER: CARCINOMA, Dose [Carcinogen]: 5 OR 10 MG 2/WK FOR 9 WK): 36/97 (37%), 25/76 (33%), 11%, not significant | tumour outcome (control, treated, inhibition, significance) (Carcinogen: N-BUTYL-N-(4-HYDROXYBUTYL)NITROSAMINE, 3817-11-6, Dose [Inhibitor]: 1 MMOL/KG DIET DAILY FOR 16 WK STARTING 7 D AFTER FINAL CARCINOGEN DOSE (STUDY DURATION: 6 MO), Species: MOUSE, Strain/Sex: B6D2F1/MALE, Target Tissue: Type of Lesion: URINARY BLADDER: CARCINOMA, Dose [Carcinogen]: 5 OR 10 MG 2/WK FOR 9 WK): 36/97 (37%), 16/75 (21%), 43%, p<0.025 | tumour outcome (control, treated, inhibition, significance) (Carcinogen: N-BUTYL-N-(4-HYDROXYBUTYL)NITROSAMINE, 3817-11-6, Dose [Inhibitor]: 1.5 MMOL/KG DIET DAILY FOR 153 D STARTING ONE WK AFTER THE FINAL CARCINOGEN DOSE (STUDY DURATION: 210 D), Species: MOUSE, Strain/Sex: BDF1/MALE, Target Tissue: Type of Lesion: URINARY BLADDER: TRANSITIONAL CELL CARCINOMA, Dose [Carcinogen]: 7.5 MG 1/WK FOR 8 WK): 35/99 (35%), 21/99 (21%), 40%, p<0.05 | tumour outcome (control, treated, inhibition, significance) (Carcinogen: N-BUTYL-N-(4-HYDROXYBUTYL)NITROSAMINE, 3817-11-6, Dose [Inhibitor]: 1.5 MMOL/KG IN DIET FOR 153 D STARTING 1 WK AFTER LAST CARCINOGEN DOSE (STUDY DURATION: 210 D), Species: MOUSE, Strain/Sex: DBF1/MALE, Target Tissue: Type of Lesion: URINARY BLADDER: TRANSITIONAL CELL CARCINOMA, Dose [Carcinogen]: 7.5 MG 1/WK FOR 8 WK): 35/99 (35%), 21/99 (21%), 40%, p<0.05 | tumour outcome (control, treated, inhibition, significance) (Carcinogen: N-BUTYL-N-(4-HYDROXYBUTYL)NITROSAMINE, 3817-11-6, Dose [Inhibitor]: 2 MMOL/KG DIET DAILY FOR 17 WK STARTING 7 D AFTER FINAL CARCINOGEN DOSE (STUDY DURATION: 6 MO), Species: RAT, Strain/Sex: F344/MALE, Target Tissue: Type of Lesion: URINARY BLADDER: TRANSITIONAL CELL CARCINOMA, Dose [Carcinogen]: 200 MG 2/WK FOR 8 WK): 55/60 (92%), 25/30 (83%), 10%, not significant | tumour outcome (control, treated, inhibition, significance) (Carcinogen: N-BUTYL-N-(4-HYDROXYBUTYL)NITROSAMINE, 3817-11-6, Dose [Inhibitor]: 2 MMOL/KG DIET DAILY FOR 19 WK STARTING 7 D AFTER FINAL CARCINOGEN DOSE (STUDY DURATION: 6 MO), Species: RAT, Strain/Sex: F344/FEMALE, Target Tissue: Type of Lesion: URINARY BLADDER: TRANSITIONAL CELL CARCINOMA, Dose [Carcinogen]: 150 MG 2/WK FOR 6 WK): 28/80 (35%), 5/40 (12%), 66%, p<0.01 | tumour outcome (control, treated, inhibition, significance) (Carcinogen: N-METHYL-N-NITROSOUREA, 684-93-5, Dose [Inhibitor]: 2 MMOL/KG DIET DAILY STARTING 12 D AFTER CARCINOGEN TREATMENT THROUGH ABOUT 8 MO AFTER CARCINOGEN DOSE (STUDY DURATION:, Species: RAT, Strain/Sex: F344/MALE, Target Tissue: Type of Lesion: COLON: ADENOCARCINOMA, Dose [Carcinogen]: 2.5 MG 1/WK FOR 2 WK): 5/39 (13%), 9/30 (30%), -131%, not significant
